Test results as given in PubChem BioAssay (NCI).
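These data come from cells grown in 96-well plates and exposed to compound for 48 hours at five concentrations. Abbreviation: GI50, concentration required for 50% inhibition of growth. TGI denotes the concentration required for complete inhibition of growth.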

What was measured:
Assay in all cases: NCI tumour cell line growth inhibition, 48 h
HCT-15 colon = system: HCT-15 colon
SN12C renal = system: SN12C renal
SK-OV-3 ovarian = system: SK-OV-3 ovarian
SK-MEL-5 melanoma = system: SK-MEL-5 melanoma
NCI-H23 lung = system: NCI-H23 lung
SK-MEL-28 melanoma = system: SK-MEL-28 melanoma
A498 renal = system: A498 renal
COLO 205 colon = system: COLO 205 colon
NCI/ADR-RES ovarian = system: NCI/ADR-RES ovarian
MALME-3M melanoma = system: MALME-3M melanoma
OVCAR-5 ovarian = system: OVCAR-5 ovarian
DU-145 prostate = system: DU-145 prostate
MCF7 breast = system: MCF7 breast
SF-539 CNS = system: SF-539 CNS
SF-295 CNS = system: SF-295 CNS
OVCAR-8 ovarian = system: OVCAR-8 ovarian
HOP-62 NSCLC = system: HOP-62 NSCLC
BT-549 breast = system: BT-549 breast
TK-10 renal = system: TK-10 renal
T-47D breast = system: T-47D breast
SF-268 CNS = system: SF-268 CNS
IGROV1 ovarian = system: IGROV1 ovarian
UACC-62 melanoma = system: UACC-62 melanoma
U251 CNS = system: U251 CNS
HS 578T breast = system: HS 578T breast
HCT-116 colon = system: HCT-116 colon
SR leukemia = system: SR leukemia
OVCAR-3 ovarian = system: OVCAR-3 ovarian
HT29 colon = system: HT29 colon
SW-620 colon = system: SW-620 colon
ACHN renal = system: ACHN renal
MDA-MB-435 = system: MDA-MB-435
SNB-19 CNS = system: SNB-19 CNS
M14 melanoma = system: M14 melanoma
CAKI-1 renal = system: CAKI-1 renal
MOLT-4 leukemia = system: MOLT-4 leukemia
UACC-257 melanoma = system: UACC-257 melanoma
NCI-H226 lung = system: NCI-H226 lung
NCI-H522 lung = system: NCI-H522 lung
CCRF-CEM leukemia = system: CCRF-CEM leukemia
A549 NSCLC = system: A549 NSCLC
786-0 renal = system: 786-0 renal
NCI-H460 lung = system: NCI-H460 lung
LOX IMVI melanoma = system: LOX IMVI melanoma
K-562 leukemia = system: K-562 leukemia
KM12 colon = system: KM12 colon
HL-60(TB) leukemia = system: HL-60(TB) leukemia
MDA-MB-468 breast = system: MDA-MB-468 breast
HOP-92 NSCLC = system: HOP-92 NSCLC
OVCAR-4 ovarian = system: OVCAR-4 ovarian
HCC-2998 colon = system: HCC-2998 colon
PC-3 prostate = system: PC-3 prostate
EKVX NSCLC = system: EKVX NSCLC
RPMI-8226 leukemia = system: RPMI-8226 leukemia
RXF 393 renal = system: RXF 393 renal

With `CC[C@]12C=CCN3CC[C@@]4(c5ccc(OC)cc5N(C)[C@H]4[C@@](O)(C(=O)OC)[C@@H]1OC(=O)CCCC[P+](C1CCCCC1)(C1CCCCC1)C1CCCCC1)[C@@H]32` the GI50 (HCT-15 colon) was 16.1 µM, the TGI (HCT-15 colon) was 30.5 µM and the GI50 (SN12C renal) was 2.77 µM. The TGI (SN12C renal) was 9.91 µM, the GI50 (SK-OV-3 ovarian) was 2.28 µM and the TGI (SK-OV-3 ovarian) was 6.94 µM. For the same compound, the GI50 (SK-MEL-5 melanoma) was 1.88 µM, the TGI (SK-MEL-5 melanoma) was 3.74 µM and the GI50 (NCI-H23 lung) was 2.34 µM. For the same compound, the TGI (NCI-H23 lung) was 8.99 µM, the GI50 (SK-MEL-28 melanoma) was 1.38 µM and the TGI (SK-MEL-28 melanoma) was 5.25 µM. The GI50 (A498 renal) was 13.3 µM, the TGI (A498 renal) was 27.4 µM and the GI50 (COLO 205 colon) was 0.377 µM. The TGI (COLO 205 colon) was 1.23 µM, the GI50 (NCI/ADR-RES ovarian) was 56.5 µM and the TGI (NCI/ADR-RES ovarian) was > 100 µM. For the same compound, the GI50 (MALME-3M melanoma) was 1.63 µM, the TGI (MALME-3M melanoma) was 3.7 µM and the GI50 (OVCAR-5 ovarian) was 3.19 µM. For the same compound, the TGI (OVCAR-5 ovarian) was 12.1 µM, the GI50 (DU-145 prostate) was 3.65 µM and the TGI (DU-145 prostate) was 14.8 µM. It also gave a GI50 (MCF7 breast) of 1.05 µM, a TGI (MCF7 breast) of 8.18 µM and a GI50 (SF-539 CNS) of 2.85 µM. The TGI (SF-539 CNS) was 11 µM, the GI50 (SF-295 CNS) was 4.4 µM and the TGI (SF-295 CNS) was 16.1 µM. For the same compound, the GI50 (OVCAR-8 ovarian) was 2.93 µM, the TGI (OVCAR-8 ovarian) was 11.9 µM and the GI50 (HOP-62 NSCLC) was 3.9 µM. It also gave a TGI (HOP-62 NSCLC) of 13.8 µM, a GI50 (BT-549 breast) of 2.45 µM and a TGI (BT-549 breast) of 6.55 µM. It also gave a GI50 (TK-10 renal) of 3.08 µM, a TGI (TK-10 renal) of 14.9 µM and a GI50 (T-47D breast) of 0.92 µM. It also gave a TGI (T-47D breast) of 11.2 µM, a GI50 (SF-268 CNS) of 3.17 µM and a TGI (SF-268 CNS) of 12.9 µM. The GI50 (IGROV1 ovarian) was 1.36 µM, the TGI (IGROV1 ovarian) was 4.66 µM and the GI50 (UACC-62 melanoma) was 1.53 µM. The TGI (UACC-62 melanoma) was 3.64 µM, the GI50 (U251 CNS) was 0.639 µM and the TGI (U251 CNS) was 12.4 µM. For the same compound, the GI50 (HS 578T breast) was 2.61 µM, the TGI (HS 578T breast) was 8.67 µM and the GI50 (HCT-116 colon) was 2.94 µM. It also gave a TGI (HCT-116 colon) of 12 µM, a GI50 (SR leukemia) of 1.39 µM and a TGI (SR leukemia) of 5.36 µM. The GI50 (OVCAR-3 ovarian) was 1.93 µM, the TGI (OVCAR-3 ovarian) was 10.9 µM and the GI50 (HT29 colon) was 1.43 µM. For the same compound, the TGI (HT29 colon) was 3.88 µM, the GI50 (SW-620 colon) was 2.75 µM and the TGI (SW-620 colon) was 15.1 µM. It also gave a GI50 (ACHN renal) of 16 µM, a TGI (ACHN renal) of 29.6 µM and a GI50 (MDA-MB-435) of 2.62 µM. For the same compound, the TGI (MDA-MB-435) was 10.7 µM, the GI50 (SNB-19 CNS) was 1.92 µM and the TGI (SNB-19 CNS) was 11.3 µM. For the same compound, the GI50 (M14 melanoma) was 2.2 µM, the TGI (M14 melanoma) was 12 µM and the GI50 (CAKI-1 renal) was 16.7 µM. It also gave a TGI (CAKI-1 renal) of 30.6 µM, a GI50 (MOLT-4 leukemia) of 1.72 µM and a TGI (MOLT-4 leukemia) of 7.9 µM. For the same compound, the GI50 (UACC-257 melanoma) was 1.57 µM, the TGI (UACC-257 melanoma) was 3.9 µM and the GI50 (NCI-H226 lung) was 4.41 µM. It also gave a TGI (NCI-H226 lung) of 17.9 µM, a GI50 (NCI-H522 lung) of 0.643 µM and a TGI (NCI-H522 lung) of 6.79 µM. It also gave a GI50 (CCRF-CEM leukemia) of 2.55 µM, a TGI (CCRF-CEM leukemia) of 10.5 µM and a GI50 (A549 NSCLC) of 3.13 µM. It also gave a TGI (A549 NSCLC) of 13.1 µM, a GI50 (786-0 renal) of 5.43 µM and a TGI (786-0 renal) of 18.9 µM. The GI50 (NCI-H460 lung) was 2.71 µM, the TGI (NCI-H460 lung) was 12.2 µM and the GI50 (LOX IMVI melanoma) was 2.9 µM. The TGI (LOX IMVI melanoma) was 10.9 µM, the GI50 (K-562 leukemia) was 0.983 µM and the TGI (K-562 leukemia) was 16.2 µM. For the same compound, the GI50 (KM12 colon) was 1.72 µM, the TGI (KM12 colon) was 6.34 µM and the GI50 (HL-60(TB) leukemia) was 0.293 µM. It also gave a TGI (HL-60(TB) leukemia) of 1.41 µM, a GI50 (MDA-MB-468 breast) of 0.378 µM and a TGI (MDA-MB-468 breast) of 1.54 µM. It also gave a GI50 (HOP-92 NSCLC) of 1.02 µM, a TGI (HOP-92 NSCLC) of 3.9 µM and a GI50 (OVCAR-4 ovarian) of 2.73 µM. For the same compound, the TGI (OVCAR-4 ovarian) was 13.8 µM, the GI50 (HCC-2998 colon) was 1.31 µM and the TGI (HCC-2998 colon) was 10.3 µM. The GI50 (PC-3 prostate) was 1.46 µM, the TGI (PC-3 prostate) was 10.4 µM and the GI50 (EKVX NSCLC) was 3.13 µM. The TGI (EKVX NSCLC) was 16.2 µM, the GI50 (RPMI-8226 leukemia) was 0.412 µM and the TGI (RPMI-8226 leukemia) was 2.01 µM. The GI50 (RXF 393 renal) was 1.24 µM and the TGI (RXF 393 renal) was 5.4 µM.
